Assay results: article PMC4718399 (Nature chemical biology, 2015)

Legend:
[1] = target: T1, β2R (Homo sapiens, UniProt P07550, N187E, form not given); assay type: biochemical; settings: 200μM solubilized lipid; for modulation of β2R activation by solubilized phospholipid: 200μM isoproterenol
[2] = target: T1, β2R; test: Bimane fluorescence spectroscopy; assay type: biochemical; settings: for basal (agonist-free) bimane emission λmax: bimane-labelled receptor reconstituted in rHDL of the given lipid, no ligand; for rate and magnitude of change in λmax upon agonist: rHDL of the given lipid, 200 μM isoproterenol, relative to basal fluorescence in detergent
[3] = target: T1, β2R; test: Mass spectrometry quantification of lipids bound to purified β2R; settings: β2R purified from Sf9 cells with 0.5% DDM

Compound	modulation of β2R activation by solubilized phospholipid [1]	basal (agonist-free) bimane emission λmax [2]	rate and magnitude of change in λmax upon agonist [2]	basal λmax shift ([1]; 1μM β2R, 500μM DDM, 600μM cholate) [nm]	share of all β2R-bound lipids [3]
CCCCCCCC/C=C\CCCCCCCC(=O)OC[C@H](COP(=O)(O)OCCN)OC(=O)CCCCCCC/C=C\CCCCCCCC [DOPE]	little or no effect	about 450 nm	smallest change and slowest rate of change	–	–
CCCCCCCC/C=C\CCCCCCCC(=O)OC[C@H](COP(=O)(O)OCC(O)CO)OC(=O)CCCCCCC/C=C\CCCCCCCC (stereo partly shown) [DOPG]	strongest positive modulator	about 455 nm	fastest rate of change and the largest shift in λmax	4	over 7%
phosphatidylglycerol [PG]	–	–	–	–	over 16%
CCCCCCCC/C=C\CCCCCCCC(=O)OC[C@H](COP(=O)([O-])OCC[N+](C)(C)C)OC(=O)CCCCCCC/C=C\CCCCCCCC [DOPC]	little or no effect	about 450 nm	intermediate	–	–
CCCCCCCC/C=C\CCCCCCCC(=O)OC[C@H](COP(=O)(O)OC[C@H](N)C(=O)O)OC(=O)CCCCCCC/C=C\CCCCCCCC [DOPS]	positive effect albeit not as strong	–	–	–	–
